Like-named read-outs stand apart in the source and are kept apart here.
System: NK-LAAO (native Naja kaouthia L-amino acid oxidase)
Type: biochemical
Settings: 100 mM Tris-HCl pH 8.5, 25 °C

Work on `CC(C)C[C@H](N)C(=O)O` [L-Leu] yielded a Km (0.0625-4 mM substrate, 4 min) of 637 ± 34.5 µM.
`N[C@@H](CCC(=O)O)C(=O)O` [L-Glu] gave a Km (0.625-20 mM substrate, 240 min) of 3560 ± 353 µM.
`N=C(N)NCCC[C@H](N)C(=O)O` [L-Arg] was tested, and the Km (0.125-4 mM substrate, 2 min) was 3100 ± 448 µM.
For `N[C@@H](Cc1c[nH]c2ccccc12)C(=O)O` [L-Trp], the Km (0.03125-1 mM substrate, 2 min) was 471 ± 25.9 µM.
For `CSCC[C@H](N)C(=O)O` [L-Met], the Km (0.03125-4 mM substrate, 2 min) was 587 ± 9.5 µM.
